Measured values taken from article PMC3665789 (PLoS ONE, 2013).
Read-outs that look alike come from different tables or passages of the source.

Columns and labels:
PBMCs = experiment: Activation markers CD25 and CD69 on PBMCs (flow cytometry); format: cell-based; settings: 3 days, LabyA1 9.6 µM, PHA 0.016 µM
Description: The effects of 9.6 µM LabyA1 and 0.016 µM PHA on the expression levels of the cellular activation markers CD25 and CD69 on PBMCs was measured after 3 days of incubation at 37°C. After washing with PBS/FCS2%, cells were incubated with anti-CD4 conjugated with PerCP (BD Biosciences) and co-stained with the PE-conjugated mAbs anti-CD25 or anti-CD69 (both BD Biosciences) for 30 min at 4°C. For aspecific background staining, cells were incubated with SimulTest™ Control (IgGγ1-FITC/IgGγ2a-PE). After washing, and fixation with 1% formaldehyde solution, samples were analyzed using the FACSCalibur and CellQuest software (BD Biosciences).

HIV-2 ROD (R5/X4) = settings: read-out: EC50 (µM ± SEM), MT-4 cells, MTS/PES method
[1] = test system: HIV-1 UG270 (clinical isolate; X4); settings: PBMCs; UG270, group M subtype D; p24 Ag ELISA
[2] = Cytotoxicity assay (flow cytometry); format: cell-based; settings: 3 days, read-out: 50% cytotoxic concentration (CC50)
Description: The vaginal epithelial cell lines HEC-1A and VK2 (500 µl; at a density of 1×10^6 cells/ml) were seeded in a 24-well plate and incubated for 3 days with various concentrations of LabyA1 (500 µl). Cell cytotoxicity was determined microscopically and by flow cytometry (FACSCalibur, BD Biosciences, Erembodegem, Belgium).

HIV-1 IIIB = experiment: Time-of-drug-addition study, HIV; format: cell-based; settings: MT-4 cells, 48 µM LabyA1
Description: The time-of-drug-addition (TOA) experiments were performed as described. In brief, 1×10^6 MT-4 cells/ml were infected with HIV-1 X4 IIIB at a multiplicity of infection (MOI) of 0.5. The compounds were added at different time points in a range from 0 to 26 h post-infection. After 31 h, HIV-1 replication was detected by p24 HIV-1 Ag ELISA as described above. The reference compounds were added at 100 times their EC50-values, as obtained in the MT-4 cell antiviral assay.

CXCR4 = CXCR4 (Homo sapiens, UniProt P61073); experiment: Intracellular calcium mobilization (FLIPR), U87.CD4.CXCR4 cells; format: cell-based; set-up: expressed in transfected cells; host or cells: U87.CD4.CXCR4 (human astroglioma U87); settings: 9.6 µM
Description: (§1) Calcium (Ca^2+) mobilization assays were performed by the use of a fluorometric imaging plate reader (FLIPR) (Molecular Devices, Sunnyvale, CA) as described previously. Briefly, U87.CD4.CCR5 or U87.CD4.CXCR4 cells were digested by trypsin and seeded in gelatine-coated black-wall 96-well microplates at 2×10^4 cells per well. The next day, the cells were loaded with the fluorescent calcium indicator Fluo-3 acetoxymethyl ester (Molecular Probes, Leiden, The Netherlands) at 4 µM for 45 min at 37°C. Cells were washed 3 times in assay buffer (Hanks’ balanced salt solution with 20 mM HEPES buffer and 0.2% bovine serum albumin, pH 7.4) and incubated for 10 min with Laby A1. The intracellular calcium mobilization induced by LD78β in U87.CD4.CCR5 cells or by SDF-1 in U87.CD4.CXCR4 cells was then measured at 37°C by monitoring the fluorescence as a function of time simultaneously in all the wells. In addition, potential intracellular calcium mobilization induced by Laby A1 was also investigated.

[3] = test system: HIV-1 NL4.3 binding to CD4+ SupT1 cells; format: cell-based; settings: LabyA1 9.6 µM, sCD4 10 µg/ml, AMD3100 12 µM; no compound MFI 9.8, background 3.9
Lactobacillus strains = experiment: Vaginal Lactobacillus growth assay; format: cell-based; settings: dose up to 120 µM; 24 h, OD600
Description: Lactobacillus strains grown overnight to stationary phase (OD600 nm ∼1.8–2.0) were used as inocula for the assay. The assay was performed in 96-well microtiter plates. Sterile wells were filled with 200 µl MRS (de Man – Rogosa – Sharpe) medium (BD Biosciences). About 0.5×10^7 colony forming units or CFUs (1/100 of an overnight culture) were added and then 5-fold dilution series of different concentrations of the used compounds were administered. The plates were incubated without shaking for 24 h at 37°C. The OD600 nm was measured after 24 h and as a negative control, each strain was grown in medium without compound (Petrova et al., in preparation).

CCR5 = target: T1, CCR5 (Homo sapiens, UniProt P51681); experiment: Intracellular calcium mobilization (FLIPR), U87.CD4.CCR5 cells; format: cell-based; settings: 9.6 µM
T1 construct: expressed in transfected cells; host or cells: U87.CD4.CCR5 (human astroglioma U87)
Description: as §1

[4] = test system: HSV-1 wild-type KOS (reference strain); settings: HEL cells; HSV-1 KOS; reduction of virus-induced CPE by 50%
HIV-1 NL4.3^RALres. (X4) = settings: read-out: EC50 (µM ± SEM); MT-4 cells; NL4.3 resistant to raltegravir (RAL); MTS/PES
CD4 = target: T2, CD4 (Homo sapiens, UniProt P01730); experiment: Anti-CD4 mAb binding on SupT1 cells (flow cytometry); settings: SupT1 T cells; 9.6 µM or 1.9 µM
T2 construct: endogenous in cells; host or cells: SupT1 T cells (ATCC)
Description: To determine the interaction of LabyA1 with CD4, SupT1 cells (100 µl; 3×10^6 cells/ml) were incubated for 20 min at 4°C with 9.6 µM, 1.9 µM or 0 µM LabyA1. After extensive washing with PBS/FCS2% (PBS supplemented with 2% FCS), anti-CD4-PE conjugated mAbs RPA-T4 (eBioscience, Vienna, Austria), MT441 (Ancell, Enzo Life sciences) and OKT-4 (eBioscience) were added for 30 min at 4°C. For aspecific background staining, cells were incubated with SimulTest™ Control (IgGγ1-FITC/IgGγ2a-PE) (BD Biosciences). After washing, and fixation with 1% formaldehyde solution, samples were analyzed using the FACSCalibur and CellQuest software (BD Biosciences). The same protocol was applied for anti-CXCR4 evaluation using the fluorochrome conjugated mAbs 12G5-PE and 2B11-FITC (both BD Biosciences).

Chain of CXCR4 (P61073 whole entry): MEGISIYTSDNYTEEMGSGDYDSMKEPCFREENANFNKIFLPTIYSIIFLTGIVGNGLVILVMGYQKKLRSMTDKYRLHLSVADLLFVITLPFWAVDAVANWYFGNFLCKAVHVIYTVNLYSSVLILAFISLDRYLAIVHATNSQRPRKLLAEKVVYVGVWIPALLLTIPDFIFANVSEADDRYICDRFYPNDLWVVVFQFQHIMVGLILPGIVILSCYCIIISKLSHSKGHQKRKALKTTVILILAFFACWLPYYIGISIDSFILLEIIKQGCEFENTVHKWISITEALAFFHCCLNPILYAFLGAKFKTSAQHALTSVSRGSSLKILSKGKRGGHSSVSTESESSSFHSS
T1 sequence (P51681 whole entry): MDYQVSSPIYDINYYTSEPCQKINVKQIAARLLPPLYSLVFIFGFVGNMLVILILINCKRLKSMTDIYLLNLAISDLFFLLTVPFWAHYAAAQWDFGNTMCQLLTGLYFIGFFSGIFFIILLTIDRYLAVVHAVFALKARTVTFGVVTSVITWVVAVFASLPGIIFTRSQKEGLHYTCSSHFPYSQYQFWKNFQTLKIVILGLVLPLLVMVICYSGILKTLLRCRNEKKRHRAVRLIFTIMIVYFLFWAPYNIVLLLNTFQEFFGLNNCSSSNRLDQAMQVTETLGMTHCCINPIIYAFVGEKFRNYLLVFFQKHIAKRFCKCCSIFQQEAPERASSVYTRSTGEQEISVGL

Structure (SMILES): C/C=C1\NC(=O)[C@H](Cc2ccccc2)NC(=O)[C@@H]2CCCN2C(=O)[C@H](C(C)C)NC(=O)[C@H](Cc2c[nH]c3ccccc23)NC(=O)[C@]23CSC[C@H](NC1=O)C(=O)N[C@H](C(=O)O)CSSC[C@H](NC(=O)[C@@H]1CSC[C@]4(C[C@H](N)C(=O)N[C@@H](CC(N)=O)C(=O)N[C@@H](C)C(=O)N4)C(=O)N[C@@H](C(C)C)C(=O)N[C@@H](Cc4c[nH]c5ccccc45)C(=O)N[C@@H](CCC(=O)O)C(=O)N1)C(=O)N[C@@H](C2)C(=O)N[C@@H]([C@@H](C)O)C(=O)NCC(=O)N3 [LabyA1, labyrinthopeptin A1]
- percentage of CD4+CD69+ cells (PBMCs; untreated 1.4±0.8%): no significant effects
- percentage of CD4+CD25+ cells (PBMCs; untreated 10.7±3.2%): no significant effects
- EC50 (HIV-2 ROD (R5/X4)): 1.9 ± 0.7 µM
- EC50 [1]: 1500 ± 100 nM
- CC50 ([2]; HEC-1A (endometrium carcinoma)): 34000 nM
- CC50 ([2]; VK2 (vaginal epithelial)): > 48000 nM
- time-of-drug-addition profile (HIV-1 IIIB): prevented HIV infection at an early time point somewhat comparable with AMD3100
- induction of calcium signaling by compound itself (CXCR4): could not induce by itself calcium signaling
- inhibition of SDF-1α (CXCL12)-induced intracellular calcium flux (CXCR4; 100 ng/ml SDF-1α): could also not inhibit the intracellular calcium flux
- virus binding, mean fluorescence intensity (MFI) of anti-gp120 (9205) mAb [3]: 9.2
- growth inhibitory effects on Lactobacillus strains (Lactobacillus strains): no growth inhibitory effects were observed
- induction of calcium signaling by compound itself (CCR5): could not induce by itself calcium signaling
- inhibition of LD78β (CCL3L1)-induced intracellular calcium flux (CCR5; 10 ng/ml LD78β): could also not inhibit the intracellular calcium flux
- EC50 [4]: 560 ± 50 nM
- EC50 (HIV-1 NL4.3^RALres. (X4)): 0.88 ± 0.08 µM
- effect on binding of anti-CD4 mAbs RPA-T4, MT441 and OKT4 (CD4): no effect
